Experimental data reported in US12052991B2, “Substituted pyridinyloxybenzenes and salts thereof and use thereof as herbicidal agents” (Bayer Aktiengesellschaft, priority 2018, dated 2024).

How the values were obtained:
Format in all cases: in vivo
Poa annua (POAAN) = test: Herbicidal early post-emergence action (Table A3); conditions: 1900 g/ha; scored visually 9 to 12 days after treatment; 100% = plants have died, 0% = like control plants
Procedure: (§1) Seeds of monocotyledonous and dicotyledonous weed plants were placed in 96-well microtiter plates in quartz sand and grown in a climatized chamber under controlled growth conditions. 5 to 7 days after sowing, the test plants were treated at the cotyledon stage. The compounds according to the invention, formulated in the form of emulsion concentrates (EC), were applied with a water application rate of the equivalent of 2200 liters per hectare. After the test plants had been left to stand in the climatized chamber for 9 to 12 days under optimum growth conditions, the effect of the preparations was scored visually in comparison to untreated controls. For example, 100% activity=the plants have died, 0% activity=like control plants. Tables A1 to A8 below show the effects of selected compounds of the general formula (I) according to Table 1 on various harmful plants and an application rate corresponding to 1900 g/ha, which were obtained by the experimental procedure mentioned above.

[1] = tested on: harmful plants AGSTE, DIPTE, LOLPE, MATCH, POAAN, SETVI, STEME and VERPE; test: Herbicidal early post-emergence action, summary of Tables A1-A8; conditions: application rate of 1900 g of active ingredient per hectare; summary in words
Procedure: as §1, with “plants.” for “plants. Tables A1 to A8 below show the effects of selected compounds of the general formula (I) according to Table 1 on various harmful plants and an application rate corresponding to 1900 g/ha, which were obtained by the experimental procedure mentioned above.”
Tables A1 to A8 below show the effects of selected compounds of the general formula (I) according to Table 1 on various harmful plants and an application rate corresponding to 1900 g/ha, which were obtained by the experimental procedure mentioned above.
As the results of Tables A1-A8 show, compounds no.

Agrostis tenuis (AGSTE) = test: Herbicidal early post-emergence action (Table A1); conditions: 1900 g/ha; scored visually 9 to 12 days after treatment; 100% = plants have died, 0% = like control plants
Procedure: as §1

Compound | Early post-emergence effect against Poa annua (POAAN) (Poa annua (POAAN)) [%] | herbicidal activity against the harmful plants of Tables A1-A8 in early post-emergence treatment [1] | Early post-emergence effect against Agrostis tenuis (AGSTE) (Agrostis tenuis (AGSTE)) [%]
COc1ccc(-c2cc(C(F)F)no2)c(Oc2ncc(Cl)cc2F)c1 [Example 1-37] | 80 | very good herbicidal activity | –
Cc1cc(F)c(-c2cc(C(F)F)on2)c(Oc2ncc(Cl)cc2F)c1 [Example 1-87] | 80 | very good herbicidal activity | 80
Fc1cc(Cl)cnc1Oc1ccccc1-c1cc(C(F)(F)F)ccn1 [Example 1-69] | 100 | very good herbicidal activity | 100
FC(F)(F)c1cncc(-c2ccccc2Oc2ccc(Cl)cn2)c1 [Example 1-73] | 80 | very good herbicidal activity | 100
Fc1ccc(Oc2cccc(F)c2-c2cc(C(F)F)no2)nc1 [Example 1-41] | 100 | very good herbicidal activity | 80
